Experiments:
[1] = tested on: CUG foci in primary DM1 patient myoblasts; assay: Dual-cut screening: FISH staining of CUG RNA foci; assay type: cell-based, human; conditions: sgRNA pair, primary DM1 patient myoblasts; for % of CUG foci free nuclei (DNA-PKi): 3 μM DNA-PKi Compound 6 for 48 hours; for % of CUG foci free nuclei (Vehicle): vehicle (DMSO)
In short: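 SluCas9 RNPs (protein:sgRNA 1:3; 20 pmol SluCas9 + 60 pmol sgRNA per guide, paired 1:1) nucleofected into primary DM1 patient myoblasts, then DMSO or 3 μM DNA-PKi Compound 6 for 48 h. At 72 h post-nucleofection cells fixed, FISH-stained with Cy3-PNA(CAG)5 probe plus anti-MBNL1 and Hoechst; % CUG foci-free nuclei by high-content confocal imaging.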

[2] = tested on: CTG repeat in the 3′ UTR of human DMPK gene; assay: Dual-cut screening: CTG repeat excision efficiency by loss-of-signal ddPCR; assay type: cell-based; conditions: sgRNA pair, primary DM1 patient myoblasts; for Excision efficiency (by ddPCR): 3 μM DNA-PKi Compound 6 for 48 hours; for Excision efficiency by ddPCR (Vehicle): vehicle (DMSO)
Experimental: RNPs were assembled with recombinant SluCas9 protein and chemically modified sgRNAs at a ratio of 1:3 (protein:sgRNA). For SINGLE-cut screening, RNP complexes were assembled with 30 pmol of SluCas9 and 90 pmol of sgRNA in P5 Primary Cell Nucleofector Solution (Lonza). After incubation at room temperature for 20 minutes, 10 μL of RNP complex were mixed with two hundred thousand of primary myoblasts resuspended in 10 μL of P5 Nucleofector Solution. For DOUBLE-cut screening, RNP complexes were first assembled for individual sgRNAs with 20 pmol of SluCas9 protein and 60 pmol of sgRNAs in 5 μL of P5 Nucleofector Solution. After incubation at room temperature for 20 minutes, the two RNP complexes (one for upstream sgRNA and one for downstream sgRNA) were mixed at 1:1 ratio and then further mixed with two hundred thousand of primary myoblasts resuspended in 10 μL of P5 Nucleofector Solution.
The Nucleofector 96-well Shuttle System (Lonza) was used to deliver the SluCa9/sgRNA RNPs into primary DM1 patient myoblasts using the nucleofection program CM138. Following nucleofection, myoblasts from each well of nucleofection shuttle were split into six wells of the 96-well cell culture plate (Greiner, 655090) coated with matrigel. The first three wells were treated with DMSO for 48 hrs before changing to fresh myoblast growth medium, and the other three wells were treated with 3 μM of DNA-PKi Compound 6 for 48 hrs before changing to fresh myoblast growth medium. 72 hrs post nucleofection, two wells of DMSO-treated myoblasts and two wells of DNA-PKi-treated myoblasts from each nucleofection were harvested for genomic DNA extraction using the Kingfisher Flex purification system (Thermal Fisher), whereas one well of DMSO-treated myoblasts and one well of DNA-PKi-treated myoblasts were stained for RNA foci by FISH staining.
The primers and probes of ddPCR are designed using the online primer design software Primer3Plus (http://www.bioinformatics.nl/cgi-bin/primer3plus/primer3plus.cgi). In some embodiments, two target primers/probe sets were used to detect CTG repeat excision, and a reference primers/probe set were used to amplify a region located in Exon 1 of human DMPK gene and to serve as a reference control for the target sets. The 24 μL of ddPCR reaction consists of 12 μL of Supermix for Probes (no dUTP) (Bio-Rad Laboratories), 1 μL of Reference primers mix (21.6 μM), 1 μL of Reference probe (6 μM), 1 μL of Target primers mix (21.6 μM), 1 μL of Target probe (6 μM), and 8 μL of sample genomic DNA. Droplets were generated using probe oil with the QX200 Droplet Generator (Bio-Rad Laboratories). Droplets were transferred to a 96-well PCR plate, sealed and cycled in a C1000 deep well Thermocycler (Bio-Rad Laboratories) under the following cycling protocol: 1 cycle at 95° C. for 10 min; 40 cycles of 94° C. for 30 see, and 58° C. for 1 min; 1 cycle at 98° C. for 10 min (for enzyme inactivation). The cycled plate was then transferred and read in the FAM and HEX channels using the Bio-Rad QX200 Droplet Reader (Bio-Rad Laboratories). ddPCR analysis is performed with the Bio-Rad QuantaSoft Pro Software.
To assess the efficiency of SluCas9 sgRNA pairs for inducing CTG repeat excision, Dual-cut screening was performed in which individual SluCas9 sgRNAs and recombinant SluCas9 protein were assembled into ribonucleoprotein (RNP) and delivered into primary DM1 patient myoblasts. Nucleofected myoblasts were treated with either DMSO (vehicle) or 3 μM of DNA-dependent Protein Kinase Inhibitor (DNA-PKi) Compound 6 for 48 hours. 72 hours post-nucleofection, myoblasts were subjected to either genomic DNA isolation or RNA foci staining by fluorescence in situ hybridization (FISH).
CRISPR repeat excision efficiency was assessed for each of the 88 pairs (FIG. 8A-B and Table 5). CTG repeat excision efficiency percentages are shown for vehicle (DMSO; white bars) and with DNA-PKi (black bars) (FIG. 8B and Table 5).

Row | Substance | % of CUG foci free nuclei (DNA-PKi) [1] [%] | % of CUG foci free nuclei (Vehicle) [1] [%] | Excision efficiency (by ddPCR) [2] | Excision efficiency by ddPCR (Vehicle) [2]
1 | SluU08 + SluD48 (guide 1 GCCCCGTTGGAAGACTGAGTGC; guide 2 GAGAGCAGCGCAAGTGAGGAGG; guide RNA; listed as DNA, chemistry not fully specified) | 87.63 | 64.93 | 55.92 | 42.14
2 | SluU08 + SluD56 (guide 1 GCCCCGTTGGAAGACTGAGTGC; guide 2 CCAGCCGGCTCCGCCCGCTTCG; guide RNA; listed as DNA, chemistry not fully specified) | 83.74 | 46.21 | 52.26 | 32.16
3 | SluU08 + SluD68 (guide 1 GCCCCGTTGGAAGACTGAGTGC; guide 2 CCTGTAGCCTGTCAGCGAGTCG; guide RNA; listed as DNA, chemistry not fully specified) | 88.24 | 65.1 | 62.56 | 42.63
4 | SluU08 + SluD73 (guide 1 GCCCCGTTGGAAGACTGAGTGC; guide 2 CCAAAACGTGGATTGGGGTTGT; guide RNA; listed as DNA, chemistry not fully specified) | 89.94 | 65.42 | 67.61 | 50.12
5 | SluU08 + SluD83 (guide 1 GCCCCGTTGGAAGACTGAGTGC; guide 2 GTGGGGACAGACAATAAATACC; guide RNA; listed as DNA, chemistry not fully specified) | 90.38 | 68.14 | 70.46 | 45.64
6 | SluU08 + SluD100 (guide 1 GCCCCGTTGGAAGACTGAGTGC; guide 2 GTCCAGAGCTTTGGGCAGATGG; guide RNA; listed as DNA, chemistry not fully specified) | 88.59 | 66.31 | 66.38 | 41.65
7 | SluU10 + SluD06 (guide 1 CCCGTTGGAAGACTGAGTGCCC; guide 2 CCAGGCTGAGGCCCTGACGTGG; guide RNA; listed as DNA, chemistry not fully specified) | 86.35 | 61.37 | 63.05 | 48.58
8 | SluU10 + SluD14 (guide 1 CCCGTTGGAAGACTGAGTGCCC; guide 2 ATGGGCAAACTGCAGGCCTGGG; guide RNA; listed as DNA, chemistry not fully specified) | 84.04 | 62.95 | 61.58 | 43.14
9 | SluU10 + SluD18 (guide 1 CCCGTTGGAAGACTGAGTGCCC; guide 2 TGGAGGATGGAACACGGACGGC; guide RNA; listed as DNA, chemistry not fully specified) | 89.08 | 71.69 | 60.59 | 51.55
10 | SluU10 + SluD32 (guide 1 CCCGTTGGAAGACTGAGTGCCC; guide 2 CTTGTGCATGACGCCCTGCTCT; guide RNA; listed as DNA, chemistry not fully specified) | 90.08 | 77.29 | 72.52 | 48.62
11 | SluU10 + SluD34 (guide 1 CCCGTTGGAAGACTGAGTGCCC; guide 2 CGCGCCAGACGCTCCCCAGAGC; guide RNA; listed as DNA, chemistry not fully specified) | 88.63 | 80.9 | 68.59 | 52.12
12 | SluU10 + SluD48 (guide 1 CCCGTTGGAAGACTGAGTGCCC; guide 2 GAGAGCAGCGCAAGTGAGGAGG; guide RNA; listed as DNA, chemistry not fully specified) | 88.02 | 69.11 | 62.29 | 44.14
13 | SluU10 + SluD56 (guide 1 CCCGTTGGAAGACTGAGTGCCC; guide 2 CCAGCCGGCTCCGCCCGCTTCG; guide RNA; listed as DNA, chemistry not fully specified) | 83.68 | 49.83 | 54.92 | 33.89
14 | SluU10 + SluD68 (guide 1 CCCGTTGGAAGACTGAGTGCCC; guide 2 CCTGTAGCCTGTCAGCGAGTCG; guide RNA; listed as DNA, chemistry not fully specified) | 89.5 | 68.15 | 61.29 | 42.37
15 | SluU10 + SluD73 (guide 1 CCCGTTGGAAGACTGAGTGCCC; guide 2 CCAAAACGTGGATTGGGGTTGT; guide RNA; listed as DNA, chemistry not fully specified) | 88.46 | 69.97 | 64.77 | 46.13
16 | SluU10 + SluD83 (guide 1 CCCGTTGGAAGACTGAGTGCCC; guide 2 GTGGGGACAGACAATAAATACC; guide RNA; listed as DNA, chemistry not fully specified) | 89.5 | 74.17 | 68.8 | 47.63
17 | SluU10 + SluD100 (guide 1 CCCGTTGGAAGACTGAGTGCCC; guide 2 GTCCAGAGCTTTGGGCAGATGG; guide RNA; listed as DNA, chemistry not fully specified) | 88.24 | 67.81 | 64.25 | 44.65
18 | SluU21 + SluD06 (guide 1 GCTCGGAGCGGTTGTGAACTGG; guide 2 CCAGGCTGAGGCCCTGACGTGG; guide RNA; listed as DNA, chemistry not fully specified) | 88.47 | 48.27 | 66.01 | 46.6
19 | SluU21 + SluD14 (guide 1 GCTCGGAGCGGTTGTGAACTGG; guide 2 ATGGGCAAACTGCAGGCCTGGG; guide RNA; listed as DNA, chemistry not fully specified) | 89.6 | 61.25 | 63.05 | 54.02
